What was measured:
[1] = target: Prostaglandin F2-alpha receptor (Homo sapiens) (UniProt P43088); test: Inhibition of human FP receptor at 10 uM relative to control
[2] = target: Mitogen-activated protein kinase 1 (Homo sapiens) (UniProt P28482); test: Inhibition of human ERK2 (P42mapk) at 10 uM relative to control
[3] = target: Alpha-2B adrenergic receptor (Homo sapiens) (UniProt P18089); test: Inhibition of human alpha 2B receptor at 10 uM relative to control
[4] = target: Beta-1 adrenergic receptor (Homo sapiens) (UniProt P08588); test: Inhibition of human beta 1 receptor at 10 uM relative to control
[5] = target: cGMP-specific 3',5'-cyclic phosphodiesterase (Homo sapiens) (UniProt O76074); test: Inhibition of human PDE5 at 10 uM relative to control
[6] = target: Melanocyte-stimulating hormone receptor (Homo sapiens) (UniProt Q01726); test: Inhibition of MC1 receptor (unknown origin) at 10 uM relative to control
Melanocyte-stimulating hormone receptor (Homo sapiens), sequence (Q01726 whole entry, looked up): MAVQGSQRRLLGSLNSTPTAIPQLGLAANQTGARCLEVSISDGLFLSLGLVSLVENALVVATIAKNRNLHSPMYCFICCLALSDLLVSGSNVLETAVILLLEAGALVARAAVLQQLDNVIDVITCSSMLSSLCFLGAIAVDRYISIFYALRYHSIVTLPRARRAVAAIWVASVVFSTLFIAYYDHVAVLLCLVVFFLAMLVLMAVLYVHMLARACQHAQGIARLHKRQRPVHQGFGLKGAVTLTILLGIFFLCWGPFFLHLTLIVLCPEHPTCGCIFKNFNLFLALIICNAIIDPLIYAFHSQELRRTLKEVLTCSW

Homo sapiens = organism: Homo sapiens; test: Inhibition of human 5-HT3 receptor at 10 uM relative to control
[7] = target: 3',5'-cyclic-AMP phosphodiesterase 4D (Homo sapiens) (UniProt Q08499); test: Inhibition of human PDE4D2 at 10 uM relative to control
3',5'-cyclic-AMP phosphodiesterase 4D (Homo sapiens), sequence (Q08499 whole entry): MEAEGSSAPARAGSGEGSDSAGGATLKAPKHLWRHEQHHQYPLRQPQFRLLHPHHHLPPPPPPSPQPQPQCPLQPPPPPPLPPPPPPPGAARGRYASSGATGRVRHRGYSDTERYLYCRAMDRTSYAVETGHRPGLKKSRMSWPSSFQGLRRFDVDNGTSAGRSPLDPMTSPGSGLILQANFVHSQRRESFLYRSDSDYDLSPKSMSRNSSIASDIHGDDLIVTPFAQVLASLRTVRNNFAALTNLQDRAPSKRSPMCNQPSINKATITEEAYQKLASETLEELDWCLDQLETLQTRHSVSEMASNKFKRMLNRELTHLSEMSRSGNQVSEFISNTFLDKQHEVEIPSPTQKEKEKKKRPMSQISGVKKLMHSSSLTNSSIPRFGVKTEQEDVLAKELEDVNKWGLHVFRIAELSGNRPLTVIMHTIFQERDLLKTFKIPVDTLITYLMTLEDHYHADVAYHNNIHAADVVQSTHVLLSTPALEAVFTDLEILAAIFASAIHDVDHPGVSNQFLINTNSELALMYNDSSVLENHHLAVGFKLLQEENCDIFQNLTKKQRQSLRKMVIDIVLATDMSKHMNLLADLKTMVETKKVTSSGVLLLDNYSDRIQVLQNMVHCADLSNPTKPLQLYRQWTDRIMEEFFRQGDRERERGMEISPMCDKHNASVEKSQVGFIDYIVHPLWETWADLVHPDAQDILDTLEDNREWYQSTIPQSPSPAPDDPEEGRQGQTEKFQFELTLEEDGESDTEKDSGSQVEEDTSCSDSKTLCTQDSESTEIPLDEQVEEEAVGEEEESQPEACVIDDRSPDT

[8] = target: Sodium-dependent serotonin transporter (Homo sapiens) (UniProt P31645); test: Inhibition of human 5-HT transporter at 10 uM relative to control
[9] = target: 5-hydroxytryptamine receptor 4 (Homo sapiens) (UniProt Q13639); test: Inhibition of human 5-HT4e receptor at 10 uM relative to control
5-hydroxytryptamine receptor 4 (Homo sapiens), sequence (Q13639 whole entry): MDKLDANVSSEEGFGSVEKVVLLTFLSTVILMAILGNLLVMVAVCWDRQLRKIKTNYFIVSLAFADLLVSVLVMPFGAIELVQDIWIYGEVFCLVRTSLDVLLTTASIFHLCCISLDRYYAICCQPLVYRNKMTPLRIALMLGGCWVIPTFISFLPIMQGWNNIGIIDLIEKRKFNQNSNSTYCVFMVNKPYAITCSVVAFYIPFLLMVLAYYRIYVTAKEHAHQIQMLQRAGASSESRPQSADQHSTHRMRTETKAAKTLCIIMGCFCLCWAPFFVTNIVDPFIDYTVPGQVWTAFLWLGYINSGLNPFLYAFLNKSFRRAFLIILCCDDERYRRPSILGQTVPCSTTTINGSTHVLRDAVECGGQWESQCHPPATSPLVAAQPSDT

[10] = target: Beta-secretase 1 (Homo sapiens) (UniProt P56817); test: Inhibition of human BACE-1 at 10 uM relative to control
Motilin receptor = Motilin receptor (Homo sapiens, UniProt O43193); test: Inhibition of human motilin receptor
[11] = target: 5-hydroxytryptamine receptor 2A (Homo sapiens) (UniProt P28223); test: Inhibition of human 5-HT2A receptor at 10 uM relative to control
[12] = target: Prostaglandin G/H synthase 2 (Homo sapiens) (UniProt P35354); test: Inhibition of human COX2 at 10 uM relative to control
[13] = target: Catechol O-methyltransferase (Homo sapiens) (UniProt P21964); test: Inhibition of COMT (unknown origin) at 10 uM relative to control
[14] = target: Type-2 angiotensin II receptor (Homo sapiens) (UniProt P50052); test: Inhibition of human AT2 receptor at 10 uM relative to control
[15] = target: Glutamate receptor ionotropic AMPA (Homo sapiens) (UniProt P48058+P42263+P42262+P42261); test: Inhibition of human AMPA receptor at 10 uM relative to control; format: protein-complex assay
[16] = target: Angiotensin-converting enzyme 2 (Homo sapiens) (UniProt Q9BYF1); test: Inhibition of human ACE-2 at 10 uM relative to control
[17] = target: Corticotropin-releasing factor receptor 1 (Homo sapiens) (UniProt P34998); test: Inhibition of human CRF1 receptor at 10 uM relative to control
[18] = target: Insulin receptor (Homo sapiens) (UniProt P06213); test: Inhibition of human IRK (InsR) at 10 uM relative to control
Insulin receptor (Homo sapiens), sequence (P06213 28-758 limits assumed): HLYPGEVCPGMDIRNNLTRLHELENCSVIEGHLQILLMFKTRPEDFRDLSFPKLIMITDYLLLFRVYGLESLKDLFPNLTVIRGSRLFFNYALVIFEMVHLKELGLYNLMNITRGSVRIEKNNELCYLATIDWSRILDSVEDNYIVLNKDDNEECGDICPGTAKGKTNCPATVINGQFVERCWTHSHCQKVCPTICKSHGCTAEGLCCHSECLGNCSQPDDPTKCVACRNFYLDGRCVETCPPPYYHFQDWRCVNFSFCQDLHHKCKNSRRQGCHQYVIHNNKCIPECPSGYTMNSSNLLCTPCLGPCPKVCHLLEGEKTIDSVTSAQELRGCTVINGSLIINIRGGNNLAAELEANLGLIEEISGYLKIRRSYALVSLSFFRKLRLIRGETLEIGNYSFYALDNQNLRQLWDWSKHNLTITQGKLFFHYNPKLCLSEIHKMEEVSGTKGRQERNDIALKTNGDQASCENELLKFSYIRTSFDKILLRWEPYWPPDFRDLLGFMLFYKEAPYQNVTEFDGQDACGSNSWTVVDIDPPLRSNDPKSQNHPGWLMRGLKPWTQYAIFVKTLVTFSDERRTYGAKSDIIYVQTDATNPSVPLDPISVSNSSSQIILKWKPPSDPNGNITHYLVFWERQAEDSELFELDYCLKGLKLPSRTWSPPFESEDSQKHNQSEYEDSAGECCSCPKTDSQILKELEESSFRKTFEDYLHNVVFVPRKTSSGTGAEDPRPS
Insulin receptor (Homo sapiens), sequence (P06213 763-1382 limits assumed): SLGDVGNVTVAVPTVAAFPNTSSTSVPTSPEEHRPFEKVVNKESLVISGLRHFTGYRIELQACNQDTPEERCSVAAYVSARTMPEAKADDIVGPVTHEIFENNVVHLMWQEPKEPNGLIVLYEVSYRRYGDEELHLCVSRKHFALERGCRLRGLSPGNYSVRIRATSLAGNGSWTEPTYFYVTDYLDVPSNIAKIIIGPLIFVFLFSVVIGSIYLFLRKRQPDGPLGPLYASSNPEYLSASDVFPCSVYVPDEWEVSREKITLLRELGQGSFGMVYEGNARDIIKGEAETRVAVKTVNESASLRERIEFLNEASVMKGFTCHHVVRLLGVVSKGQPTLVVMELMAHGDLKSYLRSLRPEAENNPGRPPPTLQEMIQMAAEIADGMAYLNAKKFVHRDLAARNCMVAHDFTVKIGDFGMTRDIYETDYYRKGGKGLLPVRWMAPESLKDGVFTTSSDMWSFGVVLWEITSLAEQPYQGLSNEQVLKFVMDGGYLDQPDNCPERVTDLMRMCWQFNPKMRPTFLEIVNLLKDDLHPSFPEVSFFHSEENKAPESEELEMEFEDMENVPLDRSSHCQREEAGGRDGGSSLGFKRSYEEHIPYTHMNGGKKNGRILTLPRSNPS

[19] = target: Kappa-type opioid receptor (Homo sapiens, UniProt P41145); test: Inhibition of human kappa opioid receptor at 10 uM relative to control
Kappa-type opioid receptor, sequence (P41145 whole entry): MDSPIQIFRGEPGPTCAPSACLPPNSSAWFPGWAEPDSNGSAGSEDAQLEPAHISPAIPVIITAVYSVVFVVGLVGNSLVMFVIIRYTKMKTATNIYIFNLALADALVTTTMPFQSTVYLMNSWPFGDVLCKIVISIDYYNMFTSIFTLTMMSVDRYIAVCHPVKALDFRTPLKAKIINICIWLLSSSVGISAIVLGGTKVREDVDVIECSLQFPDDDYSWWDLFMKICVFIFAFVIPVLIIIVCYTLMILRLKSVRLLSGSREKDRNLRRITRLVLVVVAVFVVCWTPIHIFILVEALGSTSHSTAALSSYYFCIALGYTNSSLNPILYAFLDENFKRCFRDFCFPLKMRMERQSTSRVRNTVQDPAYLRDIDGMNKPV

[20] = target: 5-hydroxytryptamine receptor 6 (Homo sapiens) (UniProt P50406); test: Inhibition of human 5-HT6 receptor at 10 uM relative to control
5-hydroxytryptamine receptor 6 (Homo sapiens), sequence (P50406 whole entry): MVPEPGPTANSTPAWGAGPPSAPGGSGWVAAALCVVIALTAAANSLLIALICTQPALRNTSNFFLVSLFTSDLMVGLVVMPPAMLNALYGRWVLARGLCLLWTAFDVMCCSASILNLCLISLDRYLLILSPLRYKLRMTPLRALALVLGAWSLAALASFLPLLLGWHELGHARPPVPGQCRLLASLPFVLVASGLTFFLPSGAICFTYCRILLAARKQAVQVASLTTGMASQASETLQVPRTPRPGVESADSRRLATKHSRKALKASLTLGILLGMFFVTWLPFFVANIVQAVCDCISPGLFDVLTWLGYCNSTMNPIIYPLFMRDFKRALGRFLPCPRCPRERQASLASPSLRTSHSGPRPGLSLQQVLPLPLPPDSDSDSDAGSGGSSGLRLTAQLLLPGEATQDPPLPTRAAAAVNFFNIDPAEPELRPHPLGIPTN

[21] = target: Leukotriene B4 receptor 1 (Homo sapiens) (UniProt Q15722); test: Inhibition of human BLT1 at 10 uM relative to control
Leukotriene B4 receptor 1 (Homo sapiens), sequence (Q15722 whole entry): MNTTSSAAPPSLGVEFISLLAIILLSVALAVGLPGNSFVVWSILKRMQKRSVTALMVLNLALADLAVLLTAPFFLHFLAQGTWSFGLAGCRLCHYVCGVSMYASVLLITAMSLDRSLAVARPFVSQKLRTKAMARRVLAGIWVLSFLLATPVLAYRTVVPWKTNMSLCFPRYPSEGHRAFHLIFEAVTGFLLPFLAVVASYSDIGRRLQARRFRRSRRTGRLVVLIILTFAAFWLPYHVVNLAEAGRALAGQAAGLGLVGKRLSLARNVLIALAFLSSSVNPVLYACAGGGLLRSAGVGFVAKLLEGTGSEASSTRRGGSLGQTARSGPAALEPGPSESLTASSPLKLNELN

[22] = target: Mitogen-activated protein kinase 14 (Homo sapiens) (UniProt Q16539); test: Inhibition of human P38alpha kinase at 10 uM relative to control
Mitogen-activated protein kinase 14 (Homo sapiens), sequence (Q16539 whole entry): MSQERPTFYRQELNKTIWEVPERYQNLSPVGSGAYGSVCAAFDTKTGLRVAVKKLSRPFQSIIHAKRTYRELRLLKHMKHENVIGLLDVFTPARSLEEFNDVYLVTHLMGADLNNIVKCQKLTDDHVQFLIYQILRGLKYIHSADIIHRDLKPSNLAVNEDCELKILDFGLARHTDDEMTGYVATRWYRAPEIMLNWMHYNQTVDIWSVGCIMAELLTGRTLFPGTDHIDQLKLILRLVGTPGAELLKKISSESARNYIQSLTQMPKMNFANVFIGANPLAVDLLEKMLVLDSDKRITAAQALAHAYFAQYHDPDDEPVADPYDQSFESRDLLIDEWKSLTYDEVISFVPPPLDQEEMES

[23] = target: Interstitial collagenase (Homo sapiens) (UniProt P03956); test: Inhibition of human MMP-1 at 10 uM relative to control
[24] = target: cGMP-inhibited 3',5'-cyclic phosphodiesterase 3B (Homo sapiens) (UniProt Q13370); test: Inhibition of human PDE3B at 10 uM relative to control
[25] = target: Glucocorticoid receptor (Homo sapiens) (UniProt P04150); test: Inhibition of human GR at 10 uM relative to control

Prostaglandin F2-alpha receptor (Homo sapiens), sequence (P43088 whole entry): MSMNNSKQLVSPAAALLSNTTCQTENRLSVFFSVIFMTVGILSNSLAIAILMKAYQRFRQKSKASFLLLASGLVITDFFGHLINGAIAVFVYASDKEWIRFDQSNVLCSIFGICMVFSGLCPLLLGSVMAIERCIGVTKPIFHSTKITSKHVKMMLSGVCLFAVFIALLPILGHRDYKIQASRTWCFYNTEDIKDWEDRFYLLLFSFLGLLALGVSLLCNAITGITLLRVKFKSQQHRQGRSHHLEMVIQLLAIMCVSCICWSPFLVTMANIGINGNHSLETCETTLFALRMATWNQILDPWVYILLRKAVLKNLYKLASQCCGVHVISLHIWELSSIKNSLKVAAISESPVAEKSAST

Molecule `O=C([C@@H](Cc1cccc(C(F)(F)F)c1)NS(=O)(=O)c1cc(F)c2c(c1)CCNC2)N1CCCC1` has an inhibition [1] of 3%, an inhibition [2] of 5% and an inhibition [3] of 79%. For the same molecule, the inhibition [4] was -6%, the inhibition [5] was 1% and the inhibition [6] was 16%. The inhibition (Homo sapiens) was -2%, the inhibition [7] was 1% and the inhibition [8] was 9%. The inhibition [9] was -4%, the inhibition [10] was 3% and the IC50 (Motilin receptor) was 7.2 µM. It also gave an inhibition [11] of 3%, an inhibition [12] of -8% and an inhibition [13] of -9%. It also gave an inhibition [14] of 12%, an inhibition [15] of 2% and an inhibition [16] of 4%. It also gave an inhibition [17] of -7%, an inhibition [18] of 0% and an inhibition [19] of 55%. The inhibition [20] was -8%, the inhibition [21] was -8% and the inhibition [22] was -6%. It also gave an inhibition [23] of 1%, an inhibition [24] of -5% and an inhibition [25] of 5%.

— ChEMBL document CHEMBL5705898 (Proc Natl Acad Sci U S A, 2014)
